Laboratory results from US20240156698A1, “BIOCIDE COMPOSITIONS AND USES THEREOF” (PHARMOTECH SA, priority 2021, published 2024).

What was measured:
[1] = Skin absorption, Franz diffusion cells with dermatomed skin explants; assay type: in vitro ADME
Experimental: The transdermal absorption tests are carried out using a modified methodology of Franz diffusion cells, in which a semi-permeable membrane is used, such as reconstructed skin or skin explants. The membrane is located between the (i) donor and (ii) receptor compartments with the stratum corneum facing upward. The product is applied to the exposed stratum corneum in the donor compartment. Under the membrane, the receiving chamber contains a solution that simulates physiological conditions and where the tested substances are highly soluble.
After the product is delivered to the surface of the skin, samples are taken from the receptor compartment at predetermined times to determine the amount of substance accumulated in the receptor compartment as a function of time. In addition, at the end of the test, the extraction of the substance that has been retained in the skin is carried out. For the quantification of all the samples obtained, a suitable analytical method is necessary for each substance investigated. The skin explants were dermatomed (the dermatome device allows to cut skin layers of the skin at a determined thickness) at 200 μm thickness and placed on Franz cells, the receptor compartment was filled with PBS solution, used to simulate the physiological fluid and allowed to equilibrate for at least 30 minutes. Then, receptor solution was added into the donor compartment and the integrity of the skin was determined. After removing the solution and drying the donor, the composition of the invention 3 μl/0.38 cm2 (7.9 uL/cm2) was administered into the donor compartment.
Samples from the receptor compartment were taken at predetermined times to obtain the amount of active permeated. Said samples were filtered on 0.2 μm pore size cellulose acetate filters and analyzed by HPLC. The sample volume taken was replaced with fresh receptor solution. After taking the last sample from the receptor compartment, a first wash of the skin surface was performed with PBS, then, the Franz cells were disassembled.
The skin was carefully dried and the stratum corneum was removed by tape stripping. Tapes were put in 2 mL of extraction medium for at least 2 hours. The skin diffusion area was cut into small pieces and placed in extraction liquid under continuous stirring for 1 hour. After filtering the samples obtained, they were analyzed by HPLC to obtain the amount of substance retained on the skin.

CB2 receptors = CB2 receptors (Homo sapiens, UniProt P34972); conditions: compared with THC; cited from earlier work
[2] = 2 hours after application of the composition to the skin
[3] = composition of the invention 7.9 uL/cm2 applied to skin explant, Franz cell

Chain of CB2 receptors (P34972 whole entry): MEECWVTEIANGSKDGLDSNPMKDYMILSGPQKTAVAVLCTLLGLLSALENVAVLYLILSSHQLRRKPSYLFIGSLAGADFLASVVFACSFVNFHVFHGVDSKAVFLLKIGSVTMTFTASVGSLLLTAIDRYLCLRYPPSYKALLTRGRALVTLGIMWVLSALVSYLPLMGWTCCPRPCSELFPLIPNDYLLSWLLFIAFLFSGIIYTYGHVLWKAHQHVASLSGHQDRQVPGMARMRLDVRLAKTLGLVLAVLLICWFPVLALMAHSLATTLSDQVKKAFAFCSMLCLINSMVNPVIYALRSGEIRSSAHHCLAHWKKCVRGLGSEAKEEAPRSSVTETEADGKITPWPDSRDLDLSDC

For `C=C(C)[C@@H]1CCC(C)=C[C@H]1c1c(O)cc(CCCCC)cc1O` [CBD, 2-[(1R,6R)-6-isopropenyl-3-methylcyclohex-2-en-1-yl]-5-pentylbenzene-1,3-diol], the “Permeation of CBD (receptor compartment)” value ([1]; 1 hour after application of the composition to the skin) was “No permeation”, the “CBD in the stratum corneum (tape stripping)” value [1, 2] was “No CBD was found” and the “Permeation of CBD (receptor compartment)” value [1, 2] was “No permeation”. For the same compound, the “CBD absorbed in the skin” value [1, 3] was 2.38±1.52 μg CBD/cm^2, the “CBD absorbed in the skin as share of the CBD applied on the top of the skin” value [1, 3] was 15.85% and the “Affinity for CB2 receptors” value (CB2 receptors) was “very low affinity”.
